Like-named read-outs stand apart in the source and are kept apart here.
Assays:
[1] = biological target: T1, AEA-DA lipid probe targets in Neuro2a cells (Mus musculus, UniProt P09103)
T1 sequence (P09103 20-509): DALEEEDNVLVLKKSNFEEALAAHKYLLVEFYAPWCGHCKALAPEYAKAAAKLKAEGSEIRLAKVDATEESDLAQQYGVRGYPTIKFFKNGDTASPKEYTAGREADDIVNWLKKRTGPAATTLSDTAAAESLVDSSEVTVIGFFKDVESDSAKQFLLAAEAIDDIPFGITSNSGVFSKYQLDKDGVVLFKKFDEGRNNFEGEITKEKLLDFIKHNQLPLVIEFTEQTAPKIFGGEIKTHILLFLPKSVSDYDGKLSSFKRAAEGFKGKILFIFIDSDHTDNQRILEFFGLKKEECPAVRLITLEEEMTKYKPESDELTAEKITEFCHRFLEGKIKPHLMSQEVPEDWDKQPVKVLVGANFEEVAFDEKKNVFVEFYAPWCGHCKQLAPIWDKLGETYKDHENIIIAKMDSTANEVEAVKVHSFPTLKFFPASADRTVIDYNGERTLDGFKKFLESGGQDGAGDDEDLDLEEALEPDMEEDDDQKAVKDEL

[2] = biological target: T2, AEA-DA lipid probe targets in Neuro2a cells (Mus musculus, UniProt P81117)
T2 sequence (P81117 25-420): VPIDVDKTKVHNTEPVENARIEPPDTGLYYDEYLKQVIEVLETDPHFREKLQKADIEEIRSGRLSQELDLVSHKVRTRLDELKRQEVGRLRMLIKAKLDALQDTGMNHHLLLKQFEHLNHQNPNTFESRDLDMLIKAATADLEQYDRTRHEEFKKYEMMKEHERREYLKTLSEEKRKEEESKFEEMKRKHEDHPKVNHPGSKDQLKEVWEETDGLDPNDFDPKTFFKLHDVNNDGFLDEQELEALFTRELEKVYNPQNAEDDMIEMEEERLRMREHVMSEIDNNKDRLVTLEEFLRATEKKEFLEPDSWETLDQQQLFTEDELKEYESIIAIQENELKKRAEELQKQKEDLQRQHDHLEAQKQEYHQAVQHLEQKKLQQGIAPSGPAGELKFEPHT

[3] = biological target: T3, AEA-DA lipid probe targets in Neuro2a cells (Mus musculus, UniProt Q6QD59)
T3 sequence (Q6QD59 1-228): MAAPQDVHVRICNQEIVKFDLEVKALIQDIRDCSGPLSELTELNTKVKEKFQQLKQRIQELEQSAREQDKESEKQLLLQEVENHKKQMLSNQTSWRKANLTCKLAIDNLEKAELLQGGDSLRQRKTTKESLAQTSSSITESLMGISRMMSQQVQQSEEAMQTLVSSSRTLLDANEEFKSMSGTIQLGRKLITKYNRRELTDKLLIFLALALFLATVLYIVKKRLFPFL

[4] = biological target: T4, AEA-DA lipid probe targets in Neuro2a cells (Mus musculus, UniProt Q8BXN9)
T4 sequence (Q8BXN9 22-555): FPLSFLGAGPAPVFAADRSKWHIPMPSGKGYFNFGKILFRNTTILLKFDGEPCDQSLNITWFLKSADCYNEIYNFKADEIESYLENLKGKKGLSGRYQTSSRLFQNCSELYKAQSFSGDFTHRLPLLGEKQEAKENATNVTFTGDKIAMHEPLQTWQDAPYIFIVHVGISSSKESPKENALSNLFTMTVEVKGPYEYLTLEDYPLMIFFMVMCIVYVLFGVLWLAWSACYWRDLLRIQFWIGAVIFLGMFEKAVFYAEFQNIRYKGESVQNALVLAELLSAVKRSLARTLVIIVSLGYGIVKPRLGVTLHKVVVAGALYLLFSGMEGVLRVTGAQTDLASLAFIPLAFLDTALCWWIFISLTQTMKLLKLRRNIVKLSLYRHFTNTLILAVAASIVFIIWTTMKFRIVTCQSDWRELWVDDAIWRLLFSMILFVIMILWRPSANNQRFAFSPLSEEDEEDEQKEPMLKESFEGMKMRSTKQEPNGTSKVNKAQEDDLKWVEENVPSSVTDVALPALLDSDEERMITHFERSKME

[5] = biological target: T5, AEA-DA lipid probe targets in Neuro2a cells (Mus musculus, UniProt Q91XD7)
T5 sequence (Q91XD7 30-420): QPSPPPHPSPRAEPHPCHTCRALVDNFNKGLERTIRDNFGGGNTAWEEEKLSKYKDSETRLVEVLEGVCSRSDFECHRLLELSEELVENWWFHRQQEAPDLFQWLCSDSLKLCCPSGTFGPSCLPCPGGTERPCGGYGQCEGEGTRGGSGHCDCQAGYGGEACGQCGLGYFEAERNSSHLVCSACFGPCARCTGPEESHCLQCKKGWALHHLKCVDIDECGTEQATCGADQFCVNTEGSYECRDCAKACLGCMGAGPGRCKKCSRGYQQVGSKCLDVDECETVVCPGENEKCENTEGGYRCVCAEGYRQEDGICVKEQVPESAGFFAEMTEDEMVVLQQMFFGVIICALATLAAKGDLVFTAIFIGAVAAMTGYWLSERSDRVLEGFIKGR

[6] = biological target: T6, AEA-DA lipid probe targets in Neuro2a cells (Mus musculus, UniProt Q9EQI8)
T6 sequence (Q9EQI8 1-283): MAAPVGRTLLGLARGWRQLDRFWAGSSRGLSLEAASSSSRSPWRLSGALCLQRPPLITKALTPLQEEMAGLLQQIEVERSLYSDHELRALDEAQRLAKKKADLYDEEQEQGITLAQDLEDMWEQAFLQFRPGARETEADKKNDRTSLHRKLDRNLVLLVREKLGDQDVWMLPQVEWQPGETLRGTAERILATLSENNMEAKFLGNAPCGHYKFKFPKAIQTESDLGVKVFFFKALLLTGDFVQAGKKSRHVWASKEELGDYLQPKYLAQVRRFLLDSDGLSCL

[7] = biological target: AEA-DA lipid probe targets in Neuro2a cells (Mus musculus, UniProt Q9JKW0)
[8] = biological target: AEA-DA lipid probe targets in Neuro2a cells (Mus musculus, UniProt G5E895); conditions: competitor 25 μM
Sequence of AEA-DA lipid probe targets in Neuro2a cells (Mus musculus, UniProt G5E895) (G5E895 1-316): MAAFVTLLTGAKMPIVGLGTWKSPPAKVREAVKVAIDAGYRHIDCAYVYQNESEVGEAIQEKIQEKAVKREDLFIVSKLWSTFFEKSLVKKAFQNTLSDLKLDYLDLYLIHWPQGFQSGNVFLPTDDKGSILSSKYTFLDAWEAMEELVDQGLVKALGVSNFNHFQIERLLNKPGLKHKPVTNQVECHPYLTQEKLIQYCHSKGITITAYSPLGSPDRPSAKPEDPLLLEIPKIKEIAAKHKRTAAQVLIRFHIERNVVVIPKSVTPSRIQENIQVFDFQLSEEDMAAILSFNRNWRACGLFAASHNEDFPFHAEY

Sequence of AEA-DA lipid probe targets in Neuro2a cells (Mus musculus, UniProt Q9JKW0) (Q9JKW0 whole entry): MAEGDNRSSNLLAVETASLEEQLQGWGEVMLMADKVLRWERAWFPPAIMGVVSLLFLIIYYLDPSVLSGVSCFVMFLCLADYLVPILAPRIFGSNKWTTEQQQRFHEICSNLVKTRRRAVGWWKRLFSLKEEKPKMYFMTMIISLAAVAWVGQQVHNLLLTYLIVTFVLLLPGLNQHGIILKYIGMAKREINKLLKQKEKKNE

Which results are given for `CCCCC/C=C\C/C=C\C/C=C\C/C=C\CCCC(=O)NCCO` [AEA, anandamide, reference compound]?
SILAC ratio P4hb ([1]; competitor 200 μM): 1.2; SILAC ratio, Nucb2 ([2]; competitor 200 μM): 1.5; SILAC ratio, Bnip1 ([3]; competitor 200 μM): 2.1; SILAC ratio, Tmem87a ([4]; competitor 200 μM): 1.8; SILAC ratio, Creld1 ([5]; competitor 200 μM): 1.8; SILAC ratio Mrpl46 ([6]; competitor 200 μM): 1.3; SILAC ratio Arl6ip1 ([7]; competitor 200 μM): 1.5

`O=C(/C=C/c1cccnc1)NCCCCC1CCN(C(=O)c2ccccc2)CC1` [FK-866, reference compound] was tested. Which “SILAC ratio, Akr1b10” value [8] did it give?
The value was 1.9.

And the “SILAC ratio P4hb” value ([1]; competitor 25 μM)?
Its value is 1.4.

What about the “SILAC ratio, Nucb2” value ([2]; competitor 25 μM) of the same compound?
Its value is 1.1.

And the “SILAC ratio, Tmem87a” value ([4]; competitor 25 μM)?
The value was 1.1.

And the “SILAC ratio, Creld1” value ([5]; competitor 25 μM)?
Its value is 1.3.

And the “SILAC ratio Mrpl46” value ([6]; competitor 25 μM)?
The value was 1.3.

And the “SILAC ratio Arl6ip1” value ([7]; competitor 25 μM)?
Its value is 1.0.

For `CN1CCN(C(=O)c2c(-c3ccccc3)c3cc([N+](=O)[O-])ccc3n2C)CC1` [KML110, (1-Methyl-5-nitro-3-phenyl-1H-indol-2-yl)(4-methylpiperazin-1-yl)methanone], which “SILAC ratio, Akr1b10” value [8] is on record?
Its value is 3.9.

What about the “SILAC ratio P4hb” value ([1]; competitor 25 μM) of the same compound?
Its value is 1.8.

What about the “SILAC ratio, Nucb2” value ([2]; competitor 25 μM) of the same compound?
The value was 2.0.

And the “SILAC ratio, Bnip1” value ([3]; competitor 25 μM)?
Its value is 1.3.

And the “SILAC ratio, Tmem87a” value ([4]; competitor 25 μM)?
Its value is 1.8.

What about the “SILAC ratio, Creld1” value ([5]; competitor 25 μM) of the same compound?
Its value is 1.8.

What about the “SILAC ratio Mrpl46” value ([6]; competitor 25 μM) of the same compound?
Its value is 1.3.

And the “SILAC ratio Arl6ip1” value ([7]; competitor 25 μM)?
Its value is 1.4.

With `CN1CCN(C(=O)c2[nH]c3ccc([N+](=O)[O-])cc3c2-c2ccccc2)CC1` [MJN228, (4-Methylpiperazin-1-yl)(5-nitro-3-phenyl-1H-indol-2-yl)methanone] as the compound, how does the “SILAC ratio, Akr1b10” value [8] read?
The value was 2.8.

What about the “SILAC ratio P4hb” value ([1]; competitor 10 μM) of the same compound?
Its value is 1.3.

And the “SILAC ratio P4hb” value ([1]; competitor 25 μM)?
The value was 1.5.

What about the “SILAC ratio P4hb” value ([1]; competitor 50 μM) of the same compound?
The value was 2.0.

And the “SILAC ratio P4hb” value ([1]; competitor 100 μM)?
Its value is 2.2.

And the “SILAC ratio, Nucb2” value ([2]; competitor 10 μM)?
The value was 1.4.

What about the “SILAC ratio, Nucb2” value ([2]; competitor 25 μM) of the same compound?
The value was 1.6.

And the “SILAC ratio, Nucb2” value ([2]; competitor 50 μM)?
The value was 2.1.

And the “SILAC ratio, Nucb2” value ([2]; competitor 100 μM)?
Its value is 2.9.

And the “SILAC ratio, Bnip1” value ([3]; competitor 10 μM)?
The value was 1.2.

What about the “SILAC ratio, Bnip1” value ([3]; competitor 25 μM) of the same compound?
The value was 1.1.

And the “SILAC ratio, Tmem87a” value ([4]; competitor 10 μM)?
Its value is 1.3.

What about the “SILAC ratio, Tmem87a” value ([4]; competitor 25 μM) of the same compound?
Its value is 1.9.

And the “SILAC ratio, Tmem87a” value ([4]; competitor 50 μM)?
Its value is 1.6.

And the “SILAC ratio, Tmem87a” value ([4]; competitor 100 μM)?
Its value is 2.7.

What about the “SILAC ratio, Creld1” value ([5]; competitor 10 μM) of the same compound?
Its value is 1.4.

What about the “SILAC ratio, Creld1” value ([5]; competitor 25 μM) of the same compound?
The value was 1.8.

And the “SILAC ratio, Creld1” value ([5]; competitor 50 μM)?
Its value is 2.4.

And the “SILAC ratio, Creld1” value ([5]; competitor 100 μM)?
The value was 4.2.

What about the “SILAC ratio Mrpl46” value ([6]; competitor 10 μM) of the same compound?
Its value is 1.0.

And the “SILAC ratio Mrpl46” value ([6]; competitor 25 μM)?
The value was 1.3.

And the “SILAC ratio Mrpl46” value ([6]; competitor 50 μM)?
The value was 1.0.

And the “SILAC ratio Mrpl46” value ([6]; competitor 100 μM)?
Its value is 1.3.

What about the “SILAC ratio Arl6ip1” value ([7]; competitor 10 μM) of the same compound?
The value was 0.8.

And the “SILAC ratio Arl6ip1” value ([7]; competitor 25 μM)?
Its value is 1.6.

What about the “SILAC ratio Arl6ip1” value ([7]; competitor 100 μM) of the same compound?
The value was 1.5.

`C=CCN(C)CCCCCCOc1ccc(C(=O)c2ccc(Br)cc2)c(F)c1` [Ro 48-8071, reference compound] was tested. Which “SILAC ratio, Akr1b10” value [8] did it give?
The value was 1.5.

What about the “SILAC ratio P4hb” value ([1]; competitor 25 μM) of the same compound?
Its value is 1.0.

And the “SILAC ratio, Nucb2” value ([2]; competitor 25 μM)?
The value was 0.8.

What about the “SILAC ratio, Bnip1” value ([3]; competitor 25 μM) of the same compound?
The value was 1.0.

What about the “SILAC ratio, Tmem87a” value ([4]; competitor 25 μM) of the same compound?
Its value is 2.3.

And the “SILAC ratio, Creld1” value ([5]; competitor 25 μM)?
The value was 1.4.

And the “SILAC ratio Mrpl46” value ([6]; competitor 25 μM)?
Its value is 0.9.

What about the “SILAC ratio Arl6ip1” value ([7]; competitor 25 μM) of the same compound?
Its value is 1.1.

From patent publication US10168342B2, “Lipid probes and uses thereof” (THE SCRIPPS RESEARCH INSTITUTE, priority 2015, dated 2019)
